How the values were obtained:
XIAP-BIR3 = target: T1, XIAP-BIR3 (Homo sapiens, UniProt P98170); test: XIAP-BIR3 fluorescence polarization binding assay; settings: FP, probe AbuRPFK-5FAM (SM5F) 5 nM, XIAP-BIR3 40 nM, 60 min at 25° C.
T1 construct: XIAP-BIR3; purchased Reaction Biology APT-11-374
Method in brief: (§1)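 Fluorescence polarization competition using 5-carboxyfluorescein-labelled peptide probe AbuRPFK-5FAM; protein and compound preincubated 15 min, probe added, then 60 min at 25° C.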

cIAP1-BIR3 = target: T2, cIAP1-BIR3 (Homo sapiens, UniProt Q13490); test: cIAP1-BIR3 fluorescence polarization binding assay; settings: FP, probe AbuRPFK-5FAM (SM5F) 5 nM, cIAP1-BIR3 15 nM, 60 min at 25° C.
T2 construct: cIAP1-BIR3; purchased Reaction Biology APT-11-370
Method in brief: as §1

cIAP2-BIR3 = target: T3, cIAP2-BIR3 (Homo sapiens, UniProt Q13489); test: cIAP2-BIR3 fluorescence polarization binding assay; settings: FP, probe AbuRPFK-5FAM (SM5F) 5 nM, cIAP2-BIR3 80 nM, 60 min at 25° C.
T3 construct: cIAP2-BIR3; purchased Reaction Biology APT-11-372
Method in brief: as §1

T1 sequence (P98170 241-356 limits assumed): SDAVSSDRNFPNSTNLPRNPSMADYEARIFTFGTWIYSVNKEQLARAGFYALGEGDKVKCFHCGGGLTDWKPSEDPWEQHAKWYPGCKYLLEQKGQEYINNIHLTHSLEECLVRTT
T3 sequence (Q13489 238-349 limits assumed): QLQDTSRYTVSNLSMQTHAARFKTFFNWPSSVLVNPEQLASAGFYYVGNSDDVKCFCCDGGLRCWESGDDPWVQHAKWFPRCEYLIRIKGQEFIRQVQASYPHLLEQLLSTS
T2 sequence (Q13490 253-363 limits assumed): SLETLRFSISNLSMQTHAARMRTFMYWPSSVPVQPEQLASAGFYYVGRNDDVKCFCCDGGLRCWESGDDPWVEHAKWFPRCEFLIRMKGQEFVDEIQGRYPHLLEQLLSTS

Row | SMILES | IC50 (XIAP-BIR3) | IC50 (cIAP1-BIR3) | IC50 (cIAP2-BIR3)
1 | CN[C@@H](C)C(=O)N[C@H](C(=O)N1CCC[C@H]1C(=O)N[C@@H]1CCOc2c(-c3cccc4c3OCC[C@H]4NC(=O)[C@@H]3CCCN3C(=O)[C@@H](NC(=O)[C@H](C)NC)C3CC3)cccc21)C1CC1 [Compound V-E, (2S)-1-[(2S)-2-cyclopropyl-2-[(2S)-2-(methylamino)propanamido]acetyl]-N-[(4R)8-[(4R)-4-[(2S)-1-[(2S)-2-cyclopropyl-2-[(2S)-2-(methylamino)propanamido]acetyl]pyrrolidine-2-amido]-3,4-dihydro-2H-1-benzopyran-8-yl]-3,4-dihydro-2H-1-benzopyran-4-yl]pyrrolidine-2-carboxamide] | 10 to 100 nM | 1 to 10 nM | 10 to 100 nM
2 | CN[C@@H](C)C(=O)N[C@H](C(=O)N1C[C@@H](O)C[C@H]1C(=O)N[C@@H]1CCCc2c(-c3ccc(-c4cccc5c4CCC[C@H]5NC(=O)[C@@H]4C[C@H](O)CN4C(=O)[C@@H](NC(=O)[C@H](C)NC)C4CCCCC4)cc3)cccc21)C1CCCCC1 [Compound III-K, (2S,4S)-1-[(2S)-2-cyclohexyl-2-[(2S)-2-(methylamino)propanamido]acetyl]-N-[(1R)-5-[4-[(5R)-5-[(2S,4S)-1-[(2S)-2-cyclohexyl-2-[(2S)-2-(methylamino)propanamido]acetyl]-4-hydroxypyrrolidine-2-amido]-5,6,7,8-tetrahydmnaphthalen-1-yl]phenyl]-1,2,3,4-tetrahydronaphthalen-1-yl]-4-hydroxypyrrolidine-2-carboxamide] | 10 to 100 nM | 1 to 10 nM | 1 to 10 nM
3 | CN[C@@H](C)C(=O)N[C@H](C(=O)N1CCC[C@H]1C(=O)N[C@@H]1CCCc2c(Oc3cccc4c3CCC[C@H]4NC(=O)[C@@H]3CCCN3C(=O)[C@@H](NC(=O)[C@H](C)NC)C3CCCCC3)cccc21)C1CCCCC1 [Compound X, (2S)-1-[(2S)-2-cyclohexyl-2-[(2S)-2-(methylamino)propanamido]acetyl]-N-[(1R)-5-[[(5R)-5-[(2S)-1-[(2S)-2-cyclohexyl-2-[(2S)-2-(methylamino)propanamido]acetyl]pyrrolidine-2-amido]-5,6,7,8-tetrahydronaphthalen-1-yl]oxy]-1,2,3,4-tetrahydronaphthalen-1-yl]pyrrolidine-2-carboxamide] | 10 to 100 nM | 1 to 10 nM | 10 to 100 nM
4 | CN[C@@H](C)C(=O)N[C@H](C(=O)N1CCC[C@H]1C(=O)N[C@@H]1CCCc2c(OCCOCCOc3cccc4c3CCC[C@H]4NC(=O)[C@@H]3CCCN3C(=O)[C@@H](NC(=O)[C@H](C)NC)C3CCCCC3)cccc21)C1CCCCC1 [Compound II, (2S)-1-[(2S)-2-Cyclohexyl-2-[(2S)-2-(methylamino)propanamido]acetyl]-N-[(1R)-5-[2-(2-[[(5R)-5-[(2S)-1-[(2S)-2-cyclohexyl-2-[(2S)-2-(methylamino)propanamido]acetyl]pyrrolidine-2-amido]-5,6,7,8-tetrahydronaphthalen-1-yl]oxy]ethoxy)ethoxy]-1,2,3,4-tetrahydmnaphthalen-1-yl]pyrrolidine-2-carboxamide] | 10 to 100 nM | 1 to 10 nM | 1 to 10 nM

Source: US20220220152A1, “BIVALENT ANTAGONISTS OF INHIBITORS OF APOPTOSIS PROTEINS” (Hepagene Therapeutics (HK) Limited, priority 2019, published 2022)
